Results published in US7825256B2, “Inducible nitric oxide synthase dimerization inhibitors” (Kalypsys, Inc., priority 2004, dated 2010).

Assays:
hiNOS = target: T1, hiNOS (Homo sapiens, UniProt P35228); test: DAN assay, hiNOS expressed in transiently transfected HEK293 cells; type: cell-based; details: HEK293 cells transiently transfected with hiNOS
T1 construct: expressed in transfected cells; host or cells: HEK293
Procedure, shortened: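 Human iNOS, nNOS or eNOS transiently expressed in HEK293 cells, with nNOS and eNOS needing added cofactors for activity. NO production is read as nitrite by fluorometry: 2,3-diaminonaphthalene forms fluorescent […], detecting 10 nM to 10 μM nitrite.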

rat = test: Capsaicin test (topical capsaicin allodynia); type: in vivo
From the text: Subcutaneous injection of dilute capsaicin into the rat hind paw produces transient but pronounced hyperalgesia, allodynia and pain. This effect may be mitigated by pretreatment with a suitable agent, such as a topical anaesthetic or analgesic, and the extent of this mitigation quantified by evaluation of pain-related behaviors in response to noxious or innocuous stimuli as described above; rats pretreated with a known analgesic display fewer pain and allodynia related behaviors than controls. Compounds may be evaluated for their efficacy as potential analgesics in this manner as well.
Male Lewis rats weighing between 180 and 250 grams are used. The right hind paw is dipped into vehicle (100% acetone) or compound in vehicle for 30 seconds and then allowed to air-dry for 30 sec. To prevent the animal from licking the compound off the paw, the paw is wiped twice with a wet paper towel. At 15 min after application of vehicle or compound, 0.1 mg in 10 μL capsaicin is injected into right hind paw. Measurement of allodynia is performed 0.5 to 1 hour after capsaicin injection.
One procedure for quantifying allodynia measures the rat behavioral response to presentation of von Frey filaments of increasing diameter. Each rat is placed in a small, clear cage on an elevated screen. Beginning with 4.31, the von Frey hair is presented perpendicularly to the right mid-plantar hind paw with sufficient force to cause slight buckling, for 6-8 seconds. If presentation lifts the hind paw it is disregarded, as it changes the nature of the stimulus. A positive response is noted if the paw is sharply withdrawn upon onset or offset of stimulus. Ambulation is considered an ambiguous response and the presentation is repeated. Stimuli are presented in a consecutive fashion. A positive response would call for the presentation of the immediately weaker weight filament next; likewise, no response would call for the immediately stronger. Presentations continue until a series of six consecutive responses from the first change is logged. The next rat is then tested. This procedure is standard in the art for the measurement of allodynia, but any other method known in the art which provides adequate sensitivity and reproducibility may be substituted.

[1] = at 0.5 hr after capsaicin injection
[2] = at 1 hr after capsaicin injection

Structure (SMILES)	EC50 (hiNOS) [µM]	Topical Capsaicin Allodynia (rat; [1])	Topical Capsaicin Allodynia (rat; [2])
Cc1cc(C2CCCN2C(=O)NCCc2ccc3c(c2)OCO3)nc(-n2ccnc2)n1 (stereo not drawn) [Example 4, 2-(2-Imidazol-1-yl-6-methyl-pyrimidin-4-yl)-pyrrolidine-1-carboxylic acid (2-benzo[1,3]dioxol-5-yl-ethyl)-amide]	< 1	− at 0.5 hr ((−) = <15% inhibition)	+ at 1 hr ((+) = >15% inhibition)
Cc1cc(C2CCCN2C(=O)CNCc2ccc3c(c2)OCO3)nc(-n2ccnc2)n1 (stereo not drawn) [Example 5]	< 1	+ at 0.5 hr ((+) = >15% inhibition)	− at 1 hr ((−) = <15% inhibition)
CN(CCCNCc1ccc2c(c1)OCO2)c1nc(-n2ccnc2)ns1 [Example 2, N′-Benzo[1,3]dioxol-5-ylmethyl-N-(3-imidazol-1-yl-[1,2,4]thiadiazol-5-yl)-N-methyl-propane-1,3-diamine]	< 1	+ at 0.5 hr ((+) = >15% inhibition)	+ at 1 hr ((+) = >15% inhibition)
